Measured values from paper PMC7889890, “Structure of photosystem I-LHCI-LHCII from the green alga Chlamydomonas reinhardtii in State 2” (Nature Communications, 2021).

T1: PsaL (Chlamydomonas reinhardtii, UniProt A8IL32)
T1 construct: gene CHLRE_12g486300v5; mature PSI core subunit within native PSI-LHCI-LHCII supercomplex purified from state 2 thylakoids
T1 sequence (A8IL32 36-196): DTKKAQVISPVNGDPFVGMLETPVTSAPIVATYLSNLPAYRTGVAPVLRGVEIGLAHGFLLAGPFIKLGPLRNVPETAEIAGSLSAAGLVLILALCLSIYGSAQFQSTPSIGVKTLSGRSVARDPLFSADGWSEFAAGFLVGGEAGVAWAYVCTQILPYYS

T2: PsaH (Chlamydomonas reinhardtii, UniProt P13352)
T2 construct: mature PSI core subunit within native PSI-LHCI-LHCII supercomplex purified from state 2 thylakoids
T2 sequence (P13352 31-130): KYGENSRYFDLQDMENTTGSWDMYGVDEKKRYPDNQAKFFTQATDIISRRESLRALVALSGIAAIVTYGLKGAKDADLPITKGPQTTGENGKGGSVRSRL

T3: PsaD (Chlamydomonas reinhardtii (endogenous …, UniProt Q39615 36-196))
T3 construct: PSI core subunit PsaD of C. reinhardtii; source: endogenous, C. reinhardtii CC-137 cells in state 2; thylakoid membranes solubilised with α-DDM, PSI-LHCI-LHCII purified (sucrose density gradient, gel filtration)
T3 sequence (looked up): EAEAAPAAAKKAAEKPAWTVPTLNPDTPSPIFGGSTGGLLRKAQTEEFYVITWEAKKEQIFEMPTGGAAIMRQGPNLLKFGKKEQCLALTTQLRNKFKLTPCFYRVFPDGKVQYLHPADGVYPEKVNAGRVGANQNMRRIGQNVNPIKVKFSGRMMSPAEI


Tests used:
PsaA = target: T4, PsaA (Chlamydomonas reinhardtii, UniProt P12154); assay type: binding; conditions: Bcr850; native supercomplex
T4 construct: PSI core subunit within native PSI-LHCI-LHCII supercomplex purified from state 2 thylakoids

PsaL = target: T1, PsaL; assay type: binding; conditions: Bcr201, Bcr205, Bcr206; native supercomplex
PsaH = target: T2, PsaH; assay type: binding; conditions: Bcr204; native supercomplex
PsaD = target: T3, PsaD; experiment: cryo-EM structure; single-particle cryo-EM of the PSI-LHCI-LHCII supercomplex purified from state 2 cells; 3.42 Å overall; 10 mM Hepes-KOH pH 7.5, 50 mM NaCl, 1 mM NaN3, 10 mM NaF, 0.01% α-DDM; conditions: both partners purified

T4 sequence (P12154 whole entry): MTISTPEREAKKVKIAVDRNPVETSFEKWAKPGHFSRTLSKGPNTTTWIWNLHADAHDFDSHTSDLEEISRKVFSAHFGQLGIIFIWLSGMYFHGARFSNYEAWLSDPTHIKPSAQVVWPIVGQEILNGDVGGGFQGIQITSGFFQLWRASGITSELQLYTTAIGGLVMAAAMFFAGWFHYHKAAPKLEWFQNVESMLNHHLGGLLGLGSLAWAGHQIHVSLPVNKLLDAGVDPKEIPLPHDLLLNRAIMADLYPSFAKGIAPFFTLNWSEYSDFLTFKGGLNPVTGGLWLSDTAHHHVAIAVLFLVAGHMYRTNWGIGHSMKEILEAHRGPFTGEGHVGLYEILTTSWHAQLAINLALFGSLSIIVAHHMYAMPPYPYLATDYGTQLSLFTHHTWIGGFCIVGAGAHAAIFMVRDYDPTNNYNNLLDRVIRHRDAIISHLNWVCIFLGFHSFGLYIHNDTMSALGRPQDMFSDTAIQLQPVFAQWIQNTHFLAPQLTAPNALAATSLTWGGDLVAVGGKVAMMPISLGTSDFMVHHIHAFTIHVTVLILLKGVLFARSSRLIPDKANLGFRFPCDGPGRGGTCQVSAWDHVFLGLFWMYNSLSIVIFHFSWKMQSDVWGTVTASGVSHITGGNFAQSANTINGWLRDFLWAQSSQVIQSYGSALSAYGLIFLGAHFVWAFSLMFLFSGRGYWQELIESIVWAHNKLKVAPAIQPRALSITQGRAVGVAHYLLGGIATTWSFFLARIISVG

Molecule | cryo-EM structure, 3.42 Å (PsaA) | cryo-EM structure, 3.42 Å (PsaL) | cryo-EM structure, 3.42 Å (PsaH) | binding result (PsaD)
CC1=C(/C=C/C(C)=C/C=C/C(C)=C/C=C/C=C(C)/C=C/C=C(C)/C=C/C2=C(C)CCCC2(C)C)C(C)(C)CCC1 [BCR] | Bcr850 of PsaA interacts with helix A of PsaO | three BCRs (Bcr201, Bcr205 and Bcr206) were observed in the green algal PsaL | one BCR (Bcr204) were found to bind to PsaH in the present structure | 
PsaH (natural protein, UniProt P13352 31-130, looked up, PSI core subunit PsaH of C. reinhardtii; also called Cr-PsaH; source: endogenous, C. reinhardtii CC-137 cells in state 2; thylakoid membranes solubilised with α-DDM, PSI-LHCI-LHCII purified (sucrose density gradient, gel filtration)) KYGENSRYFDLQDMENTTGSWDMYGVDEKKRYPDNQAKFFTQATDIISRRESLRALVALSGIAAIVTYGLKGAKDADLPITKGPQTTGENGKGGSVRSRL |  |  |  | binds
